27 compounds from patent publication US10807970B2 (priority 2016, dated 2020) can be followed below.

Read-outs that look alike come from different tables or passages of the source. Bounds are passed on as bounds.

The target in this assay is human σ1 receptor (Homo sapiens, UniProt Q99720). The assay is described as follows: Human σ1 receptor radioligand assay ([3H](+)-pentazocine, transfected HEK-293 membranes). It is filed as binding. Set-up: μ and σ1 dual binding: key to the marks not given beside the values. Particulars: one class symbol for both Ki-σ1 (human σ1 receptor, A1) and Ki-μ (human μ-opioid receptor, A2). The gist of the method: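 Membranes from HEK-293 cells transfected with human σ1 receptor (7 μg) incubated with 5 nM [3H](+)-pentazocine in 50 mM Tris-HCl pH 8, 120 min at 37° C. Non-specific binding defined with 10 μM haloperidol. Bound radioligand separated by filtration, washed with ice-cold 10 mM Tris-HCl pH 7.4, and counted by scintillation.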

Where [1] appears, read: read-out: μ and σ1 dual binding.

Sequence of human σ1 receptor (Q99720 whole entry): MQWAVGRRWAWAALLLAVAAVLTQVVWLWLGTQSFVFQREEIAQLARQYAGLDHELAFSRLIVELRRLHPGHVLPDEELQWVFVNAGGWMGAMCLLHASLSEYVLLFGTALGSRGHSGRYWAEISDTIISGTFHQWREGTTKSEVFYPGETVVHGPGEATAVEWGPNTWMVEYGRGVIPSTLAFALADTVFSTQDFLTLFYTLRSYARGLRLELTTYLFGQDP

`CC(C)OCCN1CCC([C@@]2(C(=O)c3ccccn3)CCO[C@@H](C)C2)CC1` [Example 172]: the “μ and σ1 dual binding” value is listed as “++”. Consider `CC(C)OCCN(C)C1CN(C2(C(=O)c3ccccn3)CCOC(C)(C)C2)C1` (stereo not drawn) [Example 23, (4-(3-((2-isopropoxyethyl)(methyl)amino)azetidin-1-yl)-2,2-dimethyltetrahydro-2H-pyran-4-yl)(pyridin-2-yl)methanone], for which, under setting [1], the Ki is above 500 nM. Take `CCC1(N2CCN(CCOC(C)C)CC2)CCOCC1` [Example 176, 1-(4-ethyltetrahydro-2H-pyran-4-yl)-4-(2-isopropoxyethyl)piperazine]: the “μ and σ1 dual binding” value is reported as “++”. On to `CC(C)OCCN1CCC(C2(C(=O)c3ccccn3)CCOC(C)(C)C2)CC1` (stereo not drawn) [Example 77, (4-(1-(2-isopropoxyethyl)piperidin-4-yl)-2,2-dimethyltetrahydro-2H-pyran-4-yl)(pyridin-2-yl)methanone], for which the Ki under setting [1] is below 500 nM. `CC[C@@]1(N2CCN(Cc3ccc(C#N)cc3)CC2)CCO[C@@H](C)C1` (stereo in doubt) [Example 186, 4-((4-(4-ethyl-2-methyltetrahydro-2H-pyran-4-yl)piperazin-1-yl)methyl)benzonitrile]: the “μ and σ1 dual binding” value is “++”.

`O=C(c1cccc(C(F)(F)F)n1)C1(N2CCN(Cc3ccccc3)CC2)CCOC2(CCCC2)C1` (stereo not drawn) [Example 6, (9-(4-benzylpiperazin-1-yl)-6-oxaspiro[4.5]decan-9-yl)(6-(trifluoromethyl)pyridin-2-yl)methanone] gave a Ki (μ and σ1 dual binding) below 100 nM. `CC1(C)CC(C(=O)c2ccccn2)(N2CCN(Cc3ccc(F)cc3)CC2)CCO1` (stereo not drawn) [Example 60, (4-(4-(4-fluorobenzyl)piperazin-1-yl)-2,2-dimethyltetrahydro-2H-pyran-4-yl)(pyridin-2-yl)methanone] gave a Ki (μ and σ1 dual binding) below 500 nM. In the case of `CC(C)CN1CCN(C2(C(=O)c3ccccn3)CCOC(C)(C)C2)CC1` (stereo not drawn) [Example 14, (4-(4-isobutylpiperazin-1-yl)-2,2-dimethyltetrahydro-2H-pyran-4-yl)(pyridin-2-yl)methanone], under setting [1], the Ki is above 500 nM.

On to `CC(C)CCN1CCC([C@]2(C(=O)c3ccccn3)CCOC(C)(C)C2)CC1` [Example 114, (S)-(4-(1-isopentylpiperidin-4-yl)-2,2-dimethyltetrahydro-2H-pyran-4-yl)(pyridin-2-yl)methanone], for which the Ki (μ and σ1 dual binding) is below 500 nM.

For the compound `CC1(C)CC(C(O)c2ccccn2)(N2CCN(Cc3ccccc3)CC2)CCO1` (stereo not drawn) [Example 129, (4-(4-benzylpiperazin-1-yl)-2,2-dimethyltetrahydro-2H-pyran-4-yl)(pyridin-2-yl)methanol], the “μ and σ1 dual binding” value is “++”. `CC(C)CCN1CCC([C@@]2(C(=O)c3ccccn3)CCOC(C)(C)C2)CC1` [Example 115, (R)-(4-(1-isopentylpiperidin-4-yl)-2,2-dimethyltetrahydro-2H-pyran-4-yl)(pyridin-2-yl)methanone] had a Ki (μ and σ1 dual binding) below 500 nM. As for `CCC1(N2CCN(CCc3cccnc3)CC2)CCOC(C)(C)C1` (stereo not drawn) [Example 83, 1-(4-ethyl-2,2-dimethyltetrahydro-2H-pyran-4-yl)-4-(2-(pyridin-3-yl)ethyl)piperazine], the “μ and σ1 dual binding” value is on record as “++”. On to `c1ccc(CN2CCN(C3(Cc4ccccc4)CCOC4(CCCC4)C3)CC2)cc1` (stereo not drawn) [Example 34, 1-benzyl-4-(9-benzyl-6-oxaspiro[4.5]decan-9-yl)piperazine], for which, under “μ and σ1 dual binding”, the Ki was below 500 nM. In the case of `CC(C)OCCN1CCC([C@]2(C(=O)c3ccccn3)CCOC(C)(C)C2)CC1` [Example 244, (S)-(4-(1-(2-isopropoxyethyl)piperidin-4-yl)-2,2-dimethyltetrahydro-2H-pyran-4-yl)(pyridin-2-yl)methanone], the “μ and σ1 dual binding” value is reported as “++”.

For `CC1(C)CC(C(=O)c2ccccn2)(N2CCN(CCc3cccnc3)CC2)CCO1` (stereo not drawn) [Example 80, (2,2-dimethyl-4-(4-(2-(pyridin-3-yl)ethyl)piperazin-1-yl)tetrahydro-2H-pyran-4-yl)(pyridin-2-yl)methanone], the Ki under setting [1] was above 500 nM. `N#Cc1ccc(CN2CCN(C3(C(=O)c4ccccn4)CCOCC3)CC2)cc1F` [Example 192, 2-fluoro-4-((4-(4-picolinoyltetrahydro-2-pyran-4-yl)piperazin-1-yl)methyl)benzonitrile]: under setting [1], the Ki was above 500 nM.

`CCC1(N2CCN(CCc3ccccc3F)CC2)CCOC(C)(C)C1` (stereo not drawn) [Example 94, 1-(4-ethyl-2,2-dimethyltetrahydro-2H-pyran-4-yl)-4-(2-fluorophenethyl)piperazine] came in with a Ki (μ and σ1 dual binding) below 500 nM. For the compound `CC1(C)C[C@@](C(=O)c2ccccn2)(N2CCN(Cc3ccccc3)CC2)CCO1` [Example 2, (S)-(4-(4-benzylpiperazin-1-yl)-2,2-dimethyltetrahydro-2H-pyran-4-yl)(pyridin-2-yl)methanone], the “μ and σ1 dual binding” value is given as “++”. `c1ccc(CC2(N3CCN(Cc4cccnc4)CC3)CCOC3(CCCC3)C2)cc1` (stereo not drawn) [Example 122, 1-(9-benzyl-6-oxaspiro[4.5]decan-9-yl)-4-(pyridin-3-ylmethyl)piperazine] yielded a Ki (μ and σ1 dual binding) below 500 nM.

For the compound `CCOCCCN1CCC(C2(C(=O)c3ccccn3)CCOC(C)(C)C2)CC1` (stereo not drawn) [Example 103], the Ki under setting [1] was above 500 nM. Turning to `CC(C)CN1CCN(C2(C(=O)c3ccccn3)CCOC3(CCCC3)C2)CC1` (stereo not drawn) [Example 51, (9-(4-isobutylpiperazin-1-yl)-6-oxaspiro[4.5]decan-9-yl)(pyridin-2-yl)methanone], the Ki (μ and σ1 dual binding) was below 500 nM. Still for that read-out and setting: as for `c1ccc(CN2CCN(C3(c4ccccc4)CCOC4(CCCC4)C3)CC2)cc1` (stereo not drawn) [Example 32, 1-benzyl-4-(9-phenyl-6-oxaspiro[4.5]decan-9-yl)piperazine], the figure is below 100 nM. Consider `O=C(c1ccccn1)C1(N2CCN(Cc3ccc(F)cc3)CC2)CCOCC1` [Example 181, (4-(4-(4-fluorobenzyl)piperazin-1-yl)tetrahydro-2H-pyran-4-yl)(pyridin-2-yl)methanone], for which the “μ and σ1 dual binding” value was “++”.

`COCCC1(N2CCN(CCc3ccccc3)CC2)CCOC(C)(C)C1` (stereo not drawn) [Example 49, 1-(4-(2-Methoxyethyl)-2,2-dimethyltetrahydro-2H-pyran-4-yl)-4-phenethylpiperazine] yielded a Ki (μ and σ1 dual binding) below 500 nM.

For `CC(C)CCN(C)[C@H]1CCN([C@]2(C(=O)c3ccccn3)CCOC(C)(C)C2)C1` [Example 150, ((R)-4-((S)-3-(isopentyl(methyl)amino)pyrrolidin-1-yl)-2,2-dimethyltetrahydro-2H-pyran-4-yl)(pyridin-2-yl)methanone], under “μ and σ1 dual binding”, the Ki is below 500 nM. As for `CCC1(N2CCN(CCc3ccncc3F)CC2)CCOC(C)(C)C1` (stereo not drawn) [Example 84, 1-(4-ethyl-2,2-dimethyltetrahydro-2H-pyran-4-yl)-4-(2-(3-fluoropyridin-4-yl)ethyl)piperazine], the “μ and σ1 dual binding” value is given as “++”.

The compound `CC(C)CCN1CCCN(C2(C(=O)c3ccccn3)CCOC(C)(C)C2)CC1` (stereo not drawn) [Example 86, (4-(4-isopentyl-1,4-diazepan-1-yl)-2,2-dimethyltetrahydro-2H-pyran-4-yl)(pyridin-2-yl)methanone] showed a Ki (μ and σ1 dual binding) below 100 nM.
